Reference: patent US9867811B2, “Method of treating atherosclerosis in high triglyceride subjects” (NOVARTIS AG, priority 2011, dated 2018)

Assays:
[1] = Plasma drug concentration in cynomolgus monkeys on chow or high carbohydrate diet; format: in vivo; details: Example 8 3 mg/kg, Anacetrapib 10 mg/kg, mean ± SD; for Plasma [drug] ng/mL, Day 7, Chow / Plasma [drug] ng/mL, Day 14, Chow: chow diet; for Plasma [drug] ng/mL, Day 7, Chow / Plasma [drug] ng/mL, Day 7, High CHO: day 7, daily oral; for Plasma [drug] ng/mL, Day 14, Chow / Plasma [drug] ng/mL, Day 14, High CHO: day 14, daily oral; for Plasma [drug] ng/mL, Day 7, High CHO / Plasma [drug] ng/mL, Day 14, High CHO: high carbohydrate diet
From the text: (§1) Normal male cynomolgus monkeys (n=17) weighing between 8-14 kg are placed on a high-carbohydrate, low-fat diet. The caloric composition of the diet is approximately 13.4% protein, 79.1% carbohydrate (sugar to starch ratio 50:50) and 7.5% fat. Calories are derived from standard monkey chow (LabDiet® 5047, PMI, Richmond, Ind. or LabDiet® 5000, Balanced Fiber diet, PMI, Richmond, Ind.) in quantities necessary to meet the protein and fat requirements, with the remaining calories provided by sugar-sweetened cereals, candies, and fruit (banana, orange, cantaloupe, honeydew, pineapple). The high-carbohydrate (CHO) diet will be fed for 18 days (4 days of pre-drug diet, 14 days of drug treatment), after which time they will return to their regular chow diets for a 14 day washout period followed by a second 14 day dosing phase of the study (normal diet).
(§2) Compound of Example 8 is dissolved at 30 mg/mL in 1M NaOH+ethanol:maisoel glyceride:propylene glycol:cremophor RH40 (10:36:9:45) and diluted 1:10 in ddH2O. […] The formulations are prepared each day (weekend doses are prepared on Friday) and stored stirring and protected from light at room temperature until dosing. Artificial flavor and color will be added to the dose when prepared.
(§3) The animals will ingest the compounds (1 mL/kg) voluntarily from a plastic syringe offered at their home cage at approximately 8 am daily. Animals will be fed 60 minutes after the dose is administered.
(§4) Blood collection will take place weekly during each dosing phase. Animals are fasted overnight (approximately 16 hours) prior to blood collection. Blood samples are collected from a saphenous vein via needle and syringe and put into 2 mL EDTA-coated tubes that are immediately placed on ice until centrifugation. Samples are centrifuged at 3,000 rpm for 20 minutes. The plasma is collected, divided into aliquots (listed below), and stored at −70° C. until analysis.

CETP = molecular target: T1, CETP (Macaca fascicularis, UniProt P47896); assay: Plasma CETP activity in cynomolgus monkeys on chow or high carbohydrate diet; format: in vivo; details: for CETP activity % Δ vs day 0, Day 7, Chow / CETP activity % Δ vs day 0, Day 14, Chow: chow diet; for CETP activity % Δ vs day 0, Day 7, Chow / CETP activity % Δ vs day 0, Day 7, High CHO: day 7, Example 8 3 mg/kg; for CETP activity % Δ vs day 0, Day 7, Chow / CETP activity % Δ vs day 0, Day 14, Chow / CETP activity % Δ vs day 0, Day 7, High CHO / CETP activity % Δ vs day 0, Day 14, High CHO: Anacetrapib 10 mg/kg, mean ± SD; for CETP activity % Δ vs day 0, Day 14, Chow / CETP activity % Δ vs day 0, Day 14, High CHO: day 14, Example 8 3 mg/kg; for CETP activity % Δ vs day 0, Day 7, High CHO / CETP activity % Δ vs day 0, Day 14, High CHO: high carbohydrate diet
T1 construct: from tissue; host or cells: EDTA plasma of cynomolgus monkeys dosed orally
T1 sequence (P47896 18-493): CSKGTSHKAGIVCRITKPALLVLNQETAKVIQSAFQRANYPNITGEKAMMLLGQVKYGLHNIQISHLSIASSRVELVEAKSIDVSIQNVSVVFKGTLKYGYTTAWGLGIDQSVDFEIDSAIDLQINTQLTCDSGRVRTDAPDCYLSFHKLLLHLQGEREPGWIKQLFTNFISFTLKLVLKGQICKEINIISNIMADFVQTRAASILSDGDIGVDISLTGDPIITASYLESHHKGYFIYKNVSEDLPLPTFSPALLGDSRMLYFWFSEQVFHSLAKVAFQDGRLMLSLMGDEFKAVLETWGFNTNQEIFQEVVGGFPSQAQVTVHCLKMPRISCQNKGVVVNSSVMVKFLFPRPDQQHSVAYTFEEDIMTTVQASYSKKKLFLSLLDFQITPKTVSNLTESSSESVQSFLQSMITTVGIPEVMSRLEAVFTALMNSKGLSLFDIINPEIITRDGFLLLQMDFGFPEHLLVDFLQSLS
From the text: as §1, §2, §3, §4

COc1cc(F)c(C(C)C)cc1-c1ccc(C(F)(F)F)cc1CN1C(=O)O[C@H](c2cc(C(F)(F)F)cc(C(F)(F)F)c2)[C@@H]1C [Anacetrapib, reference compound]
Plasma [drug] ng/mL, Day 7, Chow [1]: 272 ± 74 ng/mL | Plasma [drug] ng/mL, Day 14, Chow [1]: 320 ± 93 ng/mL | Plasma [drug] ng/mL, Day 7, High CHO [1]: 1836 ± 3694 ng/mL | Plasma [drug] ng/mL, Day 14, High CHO [1]: 1437 ± 2935 ng/mL | CETP activity % Δ vs day 0, Day 7, Chow (CETP): −62 ± 15% | CETP activity % Δ vs day 0, Day 14, Chow (CETP): −59 ± 19% | CETP activity % Δ vs day 0, Day 7, High CHO (CETP): −33 ± 23% | CETP activity % Δ vs day 0, Day 14, High CHO (CETP): −24 ± 22%

CC[C@@H]1C[C@H](N(Cc2cc(C(F)(F)F)cc(C(F)(F)F)c2)c2ncc(-c3cnn(C)c3)cn2)C[C@H](CC)N1C(=O)O[C@H]1CC[C@H](C(=O)O)CC1 [Example 8]
Plasma [drug] ng/mL, Day 7, Chow [1]: 983 ± 408 ng/mL | Plasma [drug] ng/mL, Day 14, Chow [1]: 1015 ± 398 ng/mL | Plasma [drug] ng/mL, Day 7, High CHO [1]: 1706 ± 949 ng/mL | Plasma [drug] ng/mL, Day 14, High CHO [1]: 1709 ± 800 ng/mL | CETP inhibitory activity in monkeys with diet-induced hypertriglyceridemia (CETP; TG>500 mg/dL): retains CEPT inhibitory activity | CETP activity % Δ vs day 0, Day 7, Chow (CETP): −78 ± 7% | CETP activity % Δ vs day 0, Day 14, Chow (CETP): −73 ± 9% | CETP activity % Δ vs day 0, Day 7, High CHO (CETP): −72 ± 7% | CETP activity % Δ vs day 0, Day 14, High CHO (CETP): −66 ± 10%
